Measurements from patent US20210113501A1, “METHOD OF ADMINISTERING BETA-HYDROXY-BETA-METHYLBUTYRATE (HMB)” (Metabolic Technologies, Inc., priority 2009, published 2021).

Tests used:
Assay type in all cases: in vivo, human
[1] = Example 3: plasma HMB with probiotic supplementation; settings: 0.8 g HMB-FA vs 1.0 g CaHMB; before and after 14 days of probiotic
Experimental: A study was conducted to examine the bioavailability of HMB-acid and CaHMB when also administering a probiotic. Six volunteers were tested before and after two weeks of probiotic supplementation. Between trials, each volunteer took one dose of probiotics (BC^30) every morning for 14 days. At each trial, baseline plasma HMB levels were measured, then gave each volunteer one serving of HMB (1.0 g of CaHMB or 0.8 g of HMB-FA). Plasma HMB levels were measured at 2, 5, 10, 15, 25, 35, 45, 60, 90, 120, 150, and 180 min, as well as at 6, 12, and 24 hours.

[2] = 12-week periodized resistance-training study of HMB-FA: strength and power
Excerpt: The current study was a randomized, double-blind, placebo- and diet-controlled experiment consisting of a 12-week-periodized resistance-training program. The training protocol was divided into three phases and consisted of a non-linear-periodized resistance-training program for the first 8 weeks, followed by a 2-week overreaching cycle, and finally a 2-week taper of the training volume. Muscle mass, body composition, strength, power, resting plasma testosterone, cortisol, and creatine kinase (CK) levels were examined collectively at the end of weeks 0, 4, 8, and 12 to assess the chronic effects of HMB; these measures were also assessed at the end of weeks 9 and 10, corresponding to the mid- and endpoints of the phase 2 overreaching cycle.
Twenty-four resistance-trained males were tested and included in the study. Subjects were organized into quartile blocks based on their LBM and strength. Following this, each quartile was randomized to one of the treatment groups using computer-generated random numbers. After treatment assignment, the groups were assessed to confirm there were no differences between groups. Of those randomized to the treatments, three subjects dropped from the placebo group, two because of injury and one because of the time commitment, while one dropped from the HMB-FA group due to injury. All drop outs occurred during the first 4 weeks of the study. The remaining 20 subjects (21.6±0.5 years of age) consisting of nine placebo (87.1±4.8 kg; 180.9 cm) and 11 supplemented (83.1±2.8 kg; 179.0±2.1) males with an average squat, bench press, and deadlift of 1.7±0.04, 1.3±0.04, and 2.0±0.05 times their bodyweight, respectively, completed the study. There were no significant differences for age, body weight, height, or BMI between the treatment groups at the start of the study
Strength was assessed via a one-repetition maximum (1-RM) testing of the back squat, bench press, and deadlift. The intraclass correlation coefficient (ICC) for the test-retest of strength in the squat, bench press, and deadlift ranged from r=0.956 to 0.982. Body composition [LBM, fat mass (FM), and total mass] was determined on a Lunar Prodigy dual X-ray absorptiometry (DXA) apparatus (software version, enCORE 2008, Madison, Wis., USA). Tests for the DXA were performed at the same time of day in a fasted state and the ICC was r=0.981. Skeletal muscle hypertrophy was assessed via changes in ultrasonography (GE Logiq e 2008, Wauwatosa, Wis., USA) determined combined muscle thickness of the vastus lateralis (VL) and vastus intermedius (VI) muscles. The ICC for the test-retest of muscle thickness measurements was r=0.975.
Peak power (PP) was assessed during maximal cycling (modified Wingate test) and jumping movements. During the cycling test, the volunteer was instructed to cycle against a predetermined resistance (7.5% of body weight) as fast as possible for 10 s on a cycle ergometer (Monark model 894e, Vansbro, Sweden). Wingate PP was recorded using Monark anaerobic test software (Version 1.0, Monark, Vansbro, Sweden). From completion of Wingate tests performed over several days, the ICC for Wingate PP was 0.966.
Measurements of PP for the vertical jump were also taken on a multicomponent AMTI force platform (Advanced Mechanical Technology, Watertown, Mass. USA) which interfaced with a personal computer at a sampling rate of 1,000 Hz). Data acquisition software (LabVIEW, version 7.1; National Instruments Corporation, Austin, Tex., USA) was used to calculate vertical jump PP. The ICC for VJ PP was 0.971.
Prior to the study, participants were randomly assigned to receive either 3 g per day of HMB-FA or a placebo divided equally into three servings. Each serving was formulated with 1 g of HMB-FA. The first serving was given 30 min prior to exercise and the remaining two servings given with the mid-day and evening meals. On the non-training days, participants were instructed to consume one serving with each of three separate meals throughout the day. […]

[3] = Comparison of the CaHMB and HMB-acid strength studies; settings: comparison of two separate studies
Experimental: A study was conducted to examine the effects of CaHMB on strength. A second study was conducted to examine the effects of HMB-acid on strength. The results of these studies were then compared to determine the improved efficacy of HMB-acid over CaHMB on increasing strength gains.
Thirty-two male volunteers 19-22 yr of age were selected for the study. Body weight averaged 99.3±3.4 kg with a range of 72-136 kg and height was 185±1.5 cm with a range of 170-198 cm. Almost all subjects were engaged in some form of exercise program before the study.
Body composition was measured with TOBEC except that all subjects were measured after an overnight fast. Measurements were made on the Friday morning before the start of the experiment and each Friday thereafter. Strength measurements were made the week before the study and consisted of three standard strength measurements: the bench press, the squat, and the hang clean. Treatments and exercise regimens were started on Monday. The exercise regimen consisted of weight training 6 day s/wk, which included work on all major muscle groups, and lasted from 2 to 3 h/day. Aerobic training was also included in the exercise workout at least three times per week. […]
Differences between the two treatment groups were determined with at-test. […] Trends were determined for 0.05<P<0.11, and differences were considered not significant for P>0.11. […]

[4] = after 12 weeks of training, 3 g per day

CC(C)(O)CC(=O)O [HMB-acid, 3-hydroxy-3-methylbutyric acid]
time to peak plasma HMB, retention and bioavailability versus CaHMB [1]: faster time to peak plasma levels, greater retention of HMB, and improved bioavailability | increase in vertical jump power ([2]; after 12 weeks): 19% | strength increase, bench press [2, 4]: 12% | strength increase, deadlift [2, 4]: 16% | strength increase, squat [2, 4]: 25% | strength increase, total strength [2, 4]: 18% | increase in Wingate peak power ([2]; over the 12-week study): 18% | total strength increase ([2]; over the 12-week study, 3 g per day): 77.1 ± 18.4 kg | net percent increase per week in squat and bench press, greater than with CaHMB [3]: ~80%
